Paper PMC8692498, “Synthesis and multifaceted pharmacological activity of novel quinazoline NHE-1 inhibitors” (Scientific Reports, 2021)
“Also recorded” adds a separate entry of the source. Like-named read-outs stand apart in the source and are kept apart here.

Tests used:
NHE-1 [1] = target: T1, NHE-1 (Oryctolagus cuniculus, UniProt P23791); assay: NHE-1 inhibition assay on rabbit platelets (platelet shape change after acidification with sodium propionate, laser aggregometer); assay type: cell-based; conditions: for inhibition at 0.01 µM: 10 nM, rabbit platelet-rich plasma, decimal commas, read-out: NHE-1 inhibition at 10 nM, m ± SD, n = 6 (%); for NHE-1 inhibitory activity (in words): compared with reference drugs
T1 construct: endogenous in cells; host or cells: rabbit platelets in platelet-rich plasma (male rabbits)
Method: Evaluation of NHE-1 inhibition was carried out on rabbit platelets by the known method[39],[40]. The experiments were carried out on 15 male rabbits weighing 3.0-4.0 kg. Platelet-rich plasma (PRP) was obtained by centrifuging blood with 3.8% sodium citrate (1:10) at 1000 rpm for 12 min (Multi centrifuge CM 6M, Latvia). Platelet shapeshifting due to acidification was followed with a laser aggregometer BIOLA-220 LA (Russia). Test compounds (10 μl, 10 nM final concentration) were added to 200 μl of PRP 5 min in a cuvette before the addition of sodium propionate solution, incubated with constant stirring using a magnetic stirrer (800 rpm, 37 °C). To control samples for NHE-1 activation, a buffer solution containing sodium propionate was added to 200 μL of PRP (600 μL, 135 mM sodium propionate, 20 mM HEPES, 1 mM CaCI2, 1 mM MgCI2, 10 mM glucose; pH 6.7). The change in light transmission at pH 7.4, 37 °C was monitored in a Krebs solution (600 μL, 120 mM NaCl, 4.8 mM KCl, 1.2 mM KH2PO4, 2.5 mM MgSO4, 25 mM NaHCO3, 2.6 mM CaCl2, 5.4 mM glucose; pH 7.4). Test compounds were added to a final concentration of 10 nM to the cuvette into 200 μl of PRP 5 min before adding the sodium propionate solution, incubated with constant stirring using a magnetic stirrer (800 rpm, 37 °C). NHE-1 inhibitors zoniporide, rimeporide, amiloride were used as reference drugs. Assays were run in 6 independent series.

[2] = Solubility under the conditions of the platelet aggregation assay; assay type: physicochemical; conditions: antiplatelet assay
Method: Test compounds were dissolved in 99% DMSO (stock concentration 40 mM) and stored at –25 °C. If sediment or opalescence was detected, 5% Tween 20 (Merck) was added. Serial dilutions were prepared ex tempore in a media suitable for the particular study. Final concentration in samples: DMSO <0.25%, Tween 20 <0.025% (were added to control samples in equal concentrations).
(§1) Functional activity of platelets was determined on a two-channel laser analyzer of platelet aggregation "BIOLA-220 LA" (Russia) as described previously. The experiments were carried out on 6 male rabbits weighing 3.5–4 kg. To prepare platelet-rich plasma (PRP) venous blood was taken from the ear marginal vein of a rabbit, stabilized with a 3.8% sodium citrate solution in a ratio of 9:1 and centrifuged for 10 min at 1500 rpm. PRP (300 μL) and a solution of the test compound at a concentration of 100 μM were sequentially introduced into the cell of the aggregometer. The samples were incubated in thermostated cells of the aggregometer at 37 °C for 5 min. To induce aggregation adenosine-5-diphosphoric acid (ADP, Sigma, USA) at a final concentration of 5 μM, was added to the cuvette. Acetylsalicylic acid (Shandong Xinhua Pharmaceutical Co., Ltd., China) was used as a reference drug. Experiments were run in 5 independent replicates.

NHE-1 [3] = target: T1, NHE-1; assay: NHE-1 inhibition assay on rabbit platelets (platelet shape change after acidification with sodium propionate, laser aggregometer); assay type: cell-based
[4] = system: advanced glycation products from bovine serum albumin and glucose; assay: Antiglycating activity (AGE fluorescence, bovine serum albumin and glucose); assay type: biochemical; conditions: BSA 1 mg/ml, glucose 0.36 M, 60 °C, 24 hrs; read-out: IC50 of formation of advanced glycation products
Method: The glycation reaction was modeled using 1 mg/ml bovine serum albumin (Chemmed, Russia) and 0.36 M glucose (Vekton, Russia) in 50 mM phosphate buffer solution (PBS, pH 7.4) at 60 °C. After 24 hrs, albumin was precipitated using trichloroacetic acid (10% final concentration) and centrifugation (15 000 rpm, 4 min). The supernatant was removed by aspiration, and the residue was dissolved in 50 mM PBS (pH 10.5). Aliquots of 300 µl were transferred to a black flat-bottom 96-well microplate. AGE fluorescence was registered using Infinite M200 Pro (Tecan, Austria) microplate reader at excitation/emission wavelengths of 370/440 nm. Signals were normalized using blank samples containing BSA and the test compound in the appropriate concentration without the glucose. When normalized, the activity is expressed as the AGE fluorescence coefficient, determined by the formula: Flu=10^log10A-log10B-1, where A and B correspond to the absolute fluorescence values of the glucose-containing and mean glucose-free sample.
Activity percentage was calculated using the formula: A%=1-FluSample/FluControl×100%, where Flu(Sample) and Flu(Control) correspond to the normalized fluorescence coefficients of experimental and control samples. Experiments were run in 5 independent replicates.

[5] = system: primary peritoneal macrophages of C57BL/6J mice; assay: Nitric oxide synthesis (nitrite, Griess reagent) in LPS-stimulated peritoneal macrophages; assay type: cell-based; conditions: 100 μM
Method: (§2) Peritoneal macrophages (PM) were isolated from the peritoneal exudate of 30 male C57bl/6j mice. To accumulate PM, 1 ml of 3% peptone solution was injected intraperitoneally. After 3 days the mice were euthanized by cervical dislocation. Cells of peritoneal exudate were obtained by aseptically washing the abdominal cavity with 5 ml of sterile Hanks’s solution (+ 4-6 °C) without calcium and magnesium ions. The total number and viability of cells were assessed in a Goryaev counting chamber (Russia) with a 0.4% trypan blue staining (Sigma-Aldrich, USA). The cell concentration was adjusted to 1.0×10^6 cells/ml in DMEM (Gibco) supplemented with 2 mM L-glutamine (Gibco), 10% heat-inactivated fetal bovine serum (BioClot, Germany), 100 U/ml penicillin and […] streptomycin (Gibco) and plated 200 μl/well in 96-well transparent plates (SPL Life Sciences Co., Ltd., Korea). It was left for 2 h at 37°C in a humidified atmosphere with 5% CO2, after which the wells were washed to remove non-adherent cells. After 24 hours of incubation, 20 μl of the supernatant was removed and 20 μl of solutions of test compounds were added 30 min before E. coli O127:B8 LPS (100 ng/ml final concentration). Experiments were run in 3 independent replicates.
The accumulation of nitrite anion (a stable end product of NO decomposition produced by iNOS) in supernatants was determined using a standard Griess reagent. Briefly, 50 μl of supernatants collected 22 hours after incubation of PM with test and control compounds were mixed with 50 μl of 1% sulfonamide in 2.5% H3PO4 and 50 μl of 0.1% N-(1-naphthyl) ethylenediamine in 2,5% H3PO4. After incubation at 23 °C for 10 min in an orbital shaker, the optical density was determined at a wavelength of 550 nm with a microplate reader Infinite M200 PRO (Tecan, Austria).

intraocular pressure = assay: Intraocular pressure studies in outbred rats (TonoVet); assay type: in vivo
Method: The experiments were carried out on 75 adult outbred rats of both sexes, which were kept in standard cages at a temperature of 25 °C and a standard light regime. Animals were randomly assigned to the control and experimental groups (n = 5). Before the start of the experiment, the rats had free access to food and water. Intraocular pressure (IOP) was measured with a TonoVet device (Finland)[44] which measures IOP with a short touch of a small disposable tip in the center of the cornea, no corneal anesthesia is required. The study was carried out according to the published method. One drop (50 μl) of a test 0.4% solution of the compound was instilled into the right eye, and deionized water was added to the left eye. IOP was measured in both eyes. The left eye, in turn, serves to assess the possible systemic exposure of the test compounds. […] IOP-lowering activity was assessed as the maximum decrease in IOP from the initial values. At 9:00 AM, baseline IOP was measured in animals of all groups. Experiments were run in 5 independent replicates.

[6] = system: primary peritoneal macrophages of C57BL/6J mice; assay: Cytotoxicity study (LDH activity in the medium) in peritoneal macrophages; assay type: cell-based; conditions: 100 μM, peritoneal macrophages
Method: as §2
(§3) The activity of lactate dehydrogenase (LDH) in a cell culture medium served as a marker of membrane permeability and cell death. Aliquotes of supernatants were taken after 24 h of inoculation with test compounds, mixed with 250 μl of […] NADH solution in 54 mM phosphate buffered saline (pH 7.5). Then, 25 μl of a 6.48 mM pyruvate solution was added to the mixture. The optical density was followed at a wavelength of 340 nm for 20 min. Conversion of optical density into cell viability was carried out according to a standard curve (DMSO-treated cells as 100% and 0.01% Triton X-100-treated cells as 0% viable cells).

[7] = system: primary peritoneal macrophages of C57BL/6J mice; assay: Interleukin-6 secretion (ELISA) from LPS-stimulated peritoneal macrophages; assay type: cell-based; conditions: for IC50: Mus musculus, Peritoneal macrophage, LPS-stimulated murine macrophages
Method: as §2
(§4) Cell supernatant was collected and centrifuged at 1000 g for 20 min in a 2-16PK Sigma centrifuge (Germany). The concentration of IL-6 was determined by ELISA using a commercial kit (Cloud-clone ELISA kit) with a microplate reader Infinite M200 PRO (Tecan, Austria).

[8] = Cytotoxicity study (LDH activity in the medium) in peritoneal macrophages; assay type: cell-based; conditions: male, C57BL/6J, mouse, primary peritoneal macrophages, murine peritoneal macrophages, LDH
Method: as §2, §3

rabbit platelets = assay: ADP-induced platelet aggregation assay in rabbit platelet-rich plasma; assay type: cell-based; conditions: 100 μM, ADP 5 μM
Method: as §1

IL-6 secretion = assay: Interleukin-6 secretion (ELISA) from LPS-stimulated peritoneal macrophages; assay type: cell-based, mice; conditions: male, C57BL/6J, mouse, primary peritoneal macrophages stimulated with LPS; CC50 versus IC50 of IL-6 secretion; read-out: selectivity of IL-6 inhibition over cytotoxicity
Method: as §2, §4

ICR mice = assay: Tail suspension test (antidepressant activity); assay type: in vivo; conditions: intragastrically 30 min before test, dose equimolar to 2.6 mg/kg amiloride
Method: The experiment was carried out on 36 male ICR mice weighing 22-25 g, divided into groups of 6 animals each under room lighting (300 lux). […] In experiments, test substances were administered intragastrically 30 min before the start of the test. Experimental groups received test compounds in an equimolar dose to the comparison drug amiloride. Animals of the remaining groups were treated with 2.6 mg/kg amiloride, 10 mg/kg amitriptyline, or 8 mg/kg imipramine. Distilled water was administered to the control group. The time of immobilization of the animals was recorded.

T1 sequence (P23791 whole entry): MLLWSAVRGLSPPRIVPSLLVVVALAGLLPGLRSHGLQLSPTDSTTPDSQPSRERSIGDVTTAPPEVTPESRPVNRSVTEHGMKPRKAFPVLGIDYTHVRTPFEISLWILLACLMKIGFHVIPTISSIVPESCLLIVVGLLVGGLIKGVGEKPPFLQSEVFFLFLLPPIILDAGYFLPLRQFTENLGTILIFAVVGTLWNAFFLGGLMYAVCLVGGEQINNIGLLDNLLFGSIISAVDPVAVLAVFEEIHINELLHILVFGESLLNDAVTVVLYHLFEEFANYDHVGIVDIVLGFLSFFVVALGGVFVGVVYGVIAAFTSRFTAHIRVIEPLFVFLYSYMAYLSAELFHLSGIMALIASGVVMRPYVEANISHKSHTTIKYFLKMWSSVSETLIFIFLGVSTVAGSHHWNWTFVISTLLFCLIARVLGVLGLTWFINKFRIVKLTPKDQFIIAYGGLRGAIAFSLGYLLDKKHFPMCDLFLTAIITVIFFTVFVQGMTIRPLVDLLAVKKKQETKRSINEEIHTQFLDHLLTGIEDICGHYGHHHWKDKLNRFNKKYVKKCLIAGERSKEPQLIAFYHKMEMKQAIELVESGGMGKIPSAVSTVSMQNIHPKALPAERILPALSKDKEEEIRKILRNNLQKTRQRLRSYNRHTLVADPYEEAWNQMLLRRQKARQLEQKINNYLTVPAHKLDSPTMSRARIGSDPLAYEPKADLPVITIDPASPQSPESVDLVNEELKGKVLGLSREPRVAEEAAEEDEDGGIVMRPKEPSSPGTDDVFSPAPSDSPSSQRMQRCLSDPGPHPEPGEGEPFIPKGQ

Row | inhibition at 0.01 µM (NHE-1 [1]) [%] | IC50 (NHE-1 [3]) [µM] | Compound | NHE-1 inhibitory activity (in words) (NHE-1 [1]) | IC50 [4] [µM] | inhibition of the synthesis of nitric oxide [5] | effect on cell viability [6] | further results
1 | 54.1 | 0.0067 | Nc1nnc(Cn2cnc3ccccc3c2=O)[nH]1 [Compound 6a, 3-[(5-Amino-4H-1,2,4-triazol-3-yl)methyl]quinazolin-4(3H)-one] | more potent and comparable to zoniporide |  |  |  | solubility under assay conditions [2]: insoluble under assay conditions
2 |  |  | N=C(N)NN [aminoguanidine, reference compound] |  | 4520 |  |  | 
3 | 33.2 | 0.961 | Cn1c(=O)n(CC(=O)NC(=N)N)c(=O)c2cc(Br)ccc21 [Compound 3d, 2-(6-Bromo-1-methyl-2,4-dioxo-1,4-dihydroquinazolin-3(2H)-yl)-N-carbamimidoylacetamide] | comparable to the reference drug rimeporide |  | statistically significantly inhibit | absence of a statistically significant effect on cell viability | IOP-lowering effect size (intraocular pressure; compared with zoniporide and timolol): comparable to zoniporide and superior to timolol; IOP-lowering activity (intraocular pressure; one drop (50 μl) of 0.4% solution instilled): statistically significant activity; also recorded: markedly reduce intraocular pressure
4 | 16.4 | 1.23 | N=C(N)NC(=O)c1nc(Cl)c(N)nc1N [Amiloride, amiloride, reference compound] |  |  |  |  | IC50 ([7]; unit printed in Cyrillic, read-out: IC50 of IL-6 secretion): 9.52 µM; CC50 at 24 h ([8]; unit printed in Cyrillic): > 100 µM
5 | 25.8 |  | Nc1nc(Cn2cnc3ccc(Br)cc3c2=O)n[nH]1 [Compound 6b, 3-[(5-Amino-1H-1,2,4-triazol-3-yl)methyl]-6-bromoquinazolin-4(3H)-one] |  | 506 | statistically significantly inhibit | absence of a statistically significant effect on cell viability | antiplatelet activity versus acetylsalicylic acid (rabbit platelets): exceeded the activity of the reference drug, acetylsalicylic acid
6 | 12.9 |  | Nc1nnc(Cn2c(=O)c3ccccc3n(Cc3ccccc3)c2=O)[nH]1 [Compound 3i, 3-[(5-Amino-4H-1,2,4-triazol-3-yl)methyl]-1-benzylquinazoline-2,4(1H,3H)-dione] |  |  |  |  | selectivity ratio (IL-6 secretion): 4 to 6; secretion of interleukin 6 ([7]; LPS-stimulated macrophages, screening (Fig. 4)): suppressed; IC50 ([7]; read-out: IC50 of IL-6 synthesis/secretion): 24.1 µM; CC50 at 24 h [8]: 146 µM; melting point: 262 to 265 °C; antidepressant activity (ICR mice): antidepressant activity similar to amiloride; also recorded: antidepressant activity comparable with amiloride
